A melting point compilation (Tetko et al.; mined from patent text by program, amines drawn as free bases though some values may be those of a salt)

Row | SMILES | melting point
1 | Nc1ncc(-c2ccc([N+](=O)[O-])cc2-c2cccc(Cl)c2Cl)c(N)n1 | 237 to 239 °C
2 | O=C(C1CC1)N1CC2CC2(c2ccccc2)C1 (centres undefined) | 164 to 165 °C
3 | CCN(C)C(=O)Nc1ccc2c(c1)C(c1ccccc1F)=NCC(=O)N2C | 165 to 168 °C
4 | CC(NC(=O)c1ccc(Cl)cc1)c1cccc2ccccc12 (centres undefined) | 117 to 118 °C
5 | O=C(c1ccc(Cl)cc1)c1cc(-c2cccnc2)c(N2CCOCC2)s1 | 196 °C
6 | Cc1ccc(S(=O)(=O)N2CCC(Sc3ccccc3)CC2)cc1 | 105 to 108 °C
7 | COc1cc2c(cc1CCCCN1CCCC1)[nH]c1cc(-c3ccccc3Cl)c3c(c12)C(=O)NC3=O | 173 to 178 °C
8 | O=C1c2ccccc2CN1C1CCN(c2ccc(C(OCc3ccncc3)c3ccccc3)cc2)CC1 (centres undefined) | 77 to 81 °C
9 | O=C(O)c1ccc(-c2nc(-c3cccc(Oc4ccccc4)c3)no2)cc1 | 292 to 293 °C
10 | COc1ccc(C(=O)Oc2ccc(O)cc2)cc1C12CC3CC(CC(C3)C1)C2 | 236 to 237 °C
11 | COc1ccc(Nc2cc(-c3ccccc3)nc(NC3CCC(O)CC3)n2)cc1Cl (centres undefined) | 293 to 295 °C
12 | C=C(C)C(=O)NC(=O)NCc1ccccc1 | 96 to 98 °C
13 | O=c1oc2ccc(-c3ccc(F)cc3F)cc2c(=O)n1-c1ccc(C(F)(F)F)cc1 | 209 to 210 °C
14 | Cc1nc(O)c(C)c(NCC2CC2)n1 | 227 to 228 °C
15 | COc1cc2c(cc1OC)C(c1ccccc1)N(C(=O)NCCN(C)C)CC2 (centres undefined) | 60 °C
16 | CCCN1CC(O)c2cc(OC)c(OC)c3c2C1Cc1cc(OC)c(OC)cc1-3 (centres undefined) | 153 to 154 °C
17 | OCCN(Cc1ccccc1)c1nc2ccccc2s1 | 95 to 96 °C
18 | CCc1nc2c(N)nc3ccccc3c2n1CCOCCN | 144 to 146 °C
19 | O=C(O)c1ccc(C2(C(=O)Oc3ccc(C(=O)NO)cc3)CCCCC2)cc1 | 169 to 170 °C
20 | CCCOCC1(C)CCCOc2cc(/C=C/c3ccc(C(=O)O)cc3)ccc21 (centres undefined) | 164 to 165 °C
21 | ClCc1nc(Cl)c2sccc2n1 | 101 to 102 °C
22 | COc1cc(CCCCN(C)Cc2ccc(OC)c(OC)c2)ccc1NC(=O)c1cccc2c(=O)c3cccc(OC)c3[nH]c12 | 114 to 115 °C
23 | COc1ccc(C(=O)Nc2ccc3ccc(Oc4ccccc4)nc3n2)cc1 | 160 °C
24 | Cc1nc2c(O)c(CCC(=O)c3ccccc3F)c(C(=O)N(C)C)cc2n1C | 218 to 221 °C
25 | CC(=O)N(C)c1cnc2ccc(Cl)cc2c1-c1ccccc1 | 268 to 270 °C

Row | SMILES | melting point
26 | CCOc1cc2c3ccccc3c(C=O)cc2c2ccccc12 | 174 to 176 °C
27 | CNC(=O)c1ccccc1Nc1nc(Nc2ccc3c(c2)COCC2CCCCN32)ncc1Cl (centres undefined) | 220 to 221 °C
28 | Cc1ccc(-c2ccc3c(c2)C=C(C(=O)Nc2ccc(CNc4ccccn4)cc2)CCO3)cc1 | 189 to 190 °C
29 | COCCOc1cc(NS(=O)(=O)c2ccccn2)c2[nH]c(C(=O)NCC(CN3CCSCC3)SCc3ccccc3)cc2c1 (centres undefined) | 160 to 161 °C
30 | CCCCOCCOc1ccc(-c2cc(/C=C(\C)C(=O)O)c3c(c2)CCCN3C)cc1 | 133 to 134 °C
31 | O=C(O)c1c(Cl)ccc(S(=O)(=O)N2CCCCC2)c1Cl | 142 to 145 °C
32 | CN1C(=O)C2(COc3cc4c(cc32)OCCO4)c2c(C(=O)O)cccc21 (centres undefined) | 297 to 299 °C
33 | CC(C)[C@H](NC(=O)N(C)Cc1ccccn1)C(=O)N[C@@H](Cc1ccccc1)[C@@H](O)[C@@H](O)[C@H](Cc1ccccc1)NC(=O)OCc1cccnc1 | 84 to 85 °C
34 | Cn1cc(CC(=O)O)c2cc(Br)ccc21 | 192 to 194 °C
35 | Cc1ccc(S(=O)(=O)NC(COS(=O)(=O)c2ccc(C)cc2)Cc2ccccc2)cc1 (centres undefined) | 95 to 96 °C
36 | N#Cc1c(N2CCNCC2)c2cc(Cl)ccc2n(Cc2ccccc2)c1=O | 156 °C
37 | O=C1CCCCC1c1cccnc1 (centres undefined) | 78 to 80 °C
38 | C(=C1/CCCc2ccccc21)/c1cnc[nH]1 | 136 to 138 °C
39 | CCCCc1oc2ccccc2c1Cc1cc(Br)c(O[C@H](Cc2ccccc2)C(=O)O)c(Br)c1 | 225 to 226 °C
40 | CC(=O)Nc1nc(Cl)c2ncn(COC(COC(C)C)COC(C)C)c2n1 | 106 °C
41 | CCC(CC)Oc1nc(C)nc2c1[nH]c(=O)n2-c1c(C)cc(C)cc1C | 159 to 160 °C
42 | CON=C(C(=O)O)c1csc(NC(=O)CCl)n1 | 182 to 183 °C
43 | Cc1cc2ccccn2c1C(=O)c1ccc(O)c(Br)c1 | 216 to 217 °C
44 | COc1ccc(C(=O)Nc2ccccc2)cc1NCc1ccccc1F | 142 to 144 °C
45 | CC(C)Oc1ccc(C(CC(N)=O)N2C(=O)c3ccccc3C2=O)cc1OC(C)C (centres undefined) | 153 to 154 °C
46 | COc1ccc2c(CCN3CC=C(c4c[nH]c5cc(F)ccc45)CC3)coc2c1 | 181 °C
47 | COc1nnc2n1C=Cc1ccccc1C2C (centres undefined) | 101 to 102 °C
48 | O=C1CN=C(c2ccccc2)c2ccccc2N1CC(F)(F)F | 130 to 131 °C
49 | CCCCCc1nc(C#N)c(C#N)nc1O | 61 to 64 °C
